Data on 2 compounds can be found in article PMC5877387, “Nanoparticles engineered to bind cellular motors for efficient delivery” (Journal of Nanobiotechnology, 2018).

Data set [1] relates to Vero cells. In words: Inhibition assays of NP transport with cytoskeleton-depolymerizing drugs. To be noted: Nocodazole 2.5 µM, Latrunculin A 0.1 µM; 1.5 µM NPs, 37 °C. It counts as cell-based.
The nature of data set [2]: Cytotoxicity of inhibitors, trypan blue exclusion. The conditions noted are these: at working concentrations (Nocodazole 2.5 µM, Latrunculin A 0.1 µM).

Molecules are shown by their SMILES. A value given as a limit tells only on which side of the number the result lay.

Take `COC(=O)Nc1nc2ccc(C(=O)c3cccs3)cc2[nH]1` [Nocodazole]: the “effect of drug on Au@DBP distribution, movement and spread” value in data set [1] is on record as “reversibly stopped”. The “cytotoxicity (cell death) after drug incubation” value in data set [2] is recorded as no more than 10%.

With `C/C1=C/C(=O)O[C@@H]2C[C@@H](CC[C@H](C)/C=C\C=C\CC1)O[C@@](O)([C@@H]1CSC(=O)N1)C2` [Latrunculin A], the “effect of drug on Au@DBP distribution, movement and spread” value in data set [1] is “did not stop”. For the same compound, in data set [2], the “cytotoxicity (cell death) after drug incubation” value was no more than 10%.
